Assay results as given in ChEMBL document CHEMBL4804281, “STK4 inhibitors for treatment of hematologic malignancies” (2020).
Active and inactive are the calls of the source. No cut-off for these calls is given here.

How the values were obtained:
[1] = target: T1, Serine/threonine-protein kinase 4 (Homo sapiens) (UniProt Q13043); assay: Inhibition of STK4 (unknown origin) using fluorescein-labelled Ser/Thr-07 peptide as substrate incubated for 1 hr in presence of ATP at Km concentration by Z-LYTE assay
T1 sequence (whole entry): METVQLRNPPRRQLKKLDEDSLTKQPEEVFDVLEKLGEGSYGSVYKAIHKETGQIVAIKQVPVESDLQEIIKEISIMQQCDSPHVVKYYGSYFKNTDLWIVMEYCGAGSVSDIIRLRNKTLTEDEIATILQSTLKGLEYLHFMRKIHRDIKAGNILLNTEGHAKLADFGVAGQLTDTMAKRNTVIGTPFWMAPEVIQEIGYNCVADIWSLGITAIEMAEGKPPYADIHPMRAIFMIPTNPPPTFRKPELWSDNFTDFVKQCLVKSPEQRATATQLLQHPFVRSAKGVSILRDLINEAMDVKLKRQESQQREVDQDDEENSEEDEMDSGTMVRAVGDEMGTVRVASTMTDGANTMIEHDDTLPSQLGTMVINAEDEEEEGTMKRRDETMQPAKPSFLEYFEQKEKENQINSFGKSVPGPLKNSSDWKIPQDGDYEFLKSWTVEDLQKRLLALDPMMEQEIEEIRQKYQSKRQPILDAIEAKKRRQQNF

[2] = target: T2, Serine/threonine-protein kinase 3 (Homo sapiens) (UniProt Q13188); assay: Inhibition of STK3 (unknown origin) using fluorescein-labelled Ser/Thr-07 peptide as substrate incubated for 1 hr in presence of ATP at Km concentration by Z-LYTE assay
T2 sequence (whole entry): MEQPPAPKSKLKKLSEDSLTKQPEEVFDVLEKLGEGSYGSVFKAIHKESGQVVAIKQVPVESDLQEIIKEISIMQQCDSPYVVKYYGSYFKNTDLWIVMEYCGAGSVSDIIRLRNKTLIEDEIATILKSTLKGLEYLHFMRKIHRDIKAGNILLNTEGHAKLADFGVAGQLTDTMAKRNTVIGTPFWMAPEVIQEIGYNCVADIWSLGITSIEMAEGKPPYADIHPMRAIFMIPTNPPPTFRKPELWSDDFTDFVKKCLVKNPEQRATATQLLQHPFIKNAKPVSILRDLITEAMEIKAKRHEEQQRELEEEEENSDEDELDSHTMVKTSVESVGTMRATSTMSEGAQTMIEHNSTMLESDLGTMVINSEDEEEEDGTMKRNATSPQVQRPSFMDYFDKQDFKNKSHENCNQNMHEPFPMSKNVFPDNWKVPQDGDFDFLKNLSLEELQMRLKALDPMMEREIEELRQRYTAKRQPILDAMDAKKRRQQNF

[3] = target: Serine/threonine-protein kinase 24 (Homo sapiens) (UniProt Q9Y6E0); assay: Inhibition of STK24 (unknown origin) using fluorescein-labelled Ser/Thr-07 peptide as substrate incubated for 1 hr in presence of ATP at Km concentration by Z-LYTE assay
Serine/threonine-protein kinase 24 (Homo sapiens), sequence (Q9Y6E0 whole entry, looked up): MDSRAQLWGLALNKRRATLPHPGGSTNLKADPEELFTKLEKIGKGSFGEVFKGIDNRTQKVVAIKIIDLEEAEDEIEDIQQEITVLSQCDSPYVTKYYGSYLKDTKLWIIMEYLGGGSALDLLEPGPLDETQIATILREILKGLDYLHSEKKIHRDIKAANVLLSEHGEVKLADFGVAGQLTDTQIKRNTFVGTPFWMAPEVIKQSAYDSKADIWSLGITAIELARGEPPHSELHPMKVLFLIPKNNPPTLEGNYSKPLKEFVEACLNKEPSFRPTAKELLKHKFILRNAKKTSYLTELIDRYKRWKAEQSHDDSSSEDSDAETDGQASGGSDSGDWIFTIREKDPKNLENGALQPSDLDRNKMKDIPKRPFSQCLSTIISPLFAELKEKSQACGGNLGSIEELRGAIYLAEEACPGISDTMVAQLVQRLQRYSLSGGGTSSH

[4] = system: MM1.S; assay: Upregulation of YAP1 protein level in human MM1.S cells at 1 uM measured after 16 hrs by Western blot analysis; assay type: functional, cell-based
[5] = system: MM1.S; assay: Downregulation of phosphorylated-MOB1 protein level in human MM1.S cells at 1 to 10 uM measured after 6 hrs by Western blot analysis; assay type: functional, cell-based; details: dose 1-10 µM
[6] = target: Serine/threonine-protein kinase 26 (Homo sapiens) (UniProt Q9P289); assay: Inhibition of MST4 (unknown origin) using fluorescein-labelled Ser/Thr-07 peptide as substrate incubated for 1 hr in presence of ATP at Km concentration by Z-LYTE assay
Serine/threonine-protein kinase 26 (Homo sapiens), sequence (Q9P289 2-416 limits assumed): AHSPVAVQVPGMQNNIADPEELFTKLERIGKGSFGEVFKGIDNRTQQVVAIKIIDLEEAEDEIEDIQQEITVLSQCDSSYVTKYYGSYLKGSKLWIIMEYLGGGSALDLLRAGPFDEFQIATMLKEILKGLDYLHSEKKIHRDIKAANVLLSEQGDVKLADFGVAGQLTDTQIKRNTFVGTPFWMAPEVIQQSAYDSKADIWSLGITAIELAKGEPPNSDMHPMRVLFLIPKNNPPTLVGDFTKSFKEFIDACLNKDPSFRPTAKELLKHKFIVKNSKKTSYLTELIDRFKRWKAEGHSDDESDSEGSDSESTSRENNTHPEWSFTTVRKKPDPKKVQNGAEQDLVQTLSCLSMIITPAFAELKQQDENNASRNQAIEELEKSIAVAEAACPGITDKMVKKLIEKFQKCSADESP

[7] = system: NCI-H929; assay: Upregulation of YAP1 protein level in human NCI-H929 cells at 1 to 10 uM measured after 16 hrs by Western blot analysis; assay type: functional, cell-based; details: dose 1-10 µM
[8] = target: Interleukin-1 receptor-associated kinase 1 (Homo sapiens) (UniProt P51617); assay: Inhibition of wild-type human partial length IRAK1 (R194 to S712 residues) expressed in mammalian expression system by Kinomescan method
Interleukin-1 receptor-associated kinase 1 (Homo sapiens), sequence (P51617 whole entry, looked up, the tested form may be a part, canonical isoform): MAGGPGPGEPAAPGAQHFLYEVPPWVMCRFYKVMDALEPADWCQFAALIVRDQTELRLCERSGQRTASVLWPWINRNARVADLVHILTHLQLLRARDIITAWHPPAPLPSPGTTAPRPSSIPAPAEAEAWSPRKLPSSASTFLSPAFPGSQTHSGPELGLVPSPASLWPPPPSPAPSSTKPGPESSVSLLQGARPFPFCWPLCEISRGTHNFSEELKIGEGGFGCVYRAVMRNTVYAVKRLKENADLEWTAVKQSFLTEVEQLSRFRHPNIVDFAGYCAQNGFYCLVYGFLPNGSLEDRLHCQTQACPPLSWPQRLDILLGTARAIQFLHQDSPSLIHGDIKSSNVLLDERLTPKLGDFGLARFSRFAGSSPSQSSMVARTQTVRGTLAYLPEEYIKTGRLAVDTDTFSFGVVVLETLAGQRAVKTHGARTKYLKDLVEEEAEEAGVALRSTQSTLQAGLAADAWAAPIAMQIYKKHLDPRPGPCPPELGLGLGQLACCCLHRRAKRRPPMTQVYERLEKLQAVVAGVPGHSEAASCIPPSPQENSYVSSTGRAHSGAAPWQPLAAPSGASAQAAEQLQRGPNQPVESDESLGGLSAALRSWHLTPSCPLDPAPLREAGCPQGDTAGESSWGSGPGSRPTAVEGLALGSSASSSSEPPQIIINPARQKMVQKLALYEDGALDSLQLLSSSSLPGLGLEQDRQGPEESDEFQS

[9] = target: Casein kinase I isoform epsilon (Homo sapiens) (UniProt P49674); assay: Inhibition of wild-type human full length CSNK1E (M1 to K416 residues) expressed in bacterial expression system by Kinomescan method
Casein kinase I isoform epsilon (Homo sapiens), sequence (P49674 whole entry, looked up, the tested form may be a part, canonical isoform): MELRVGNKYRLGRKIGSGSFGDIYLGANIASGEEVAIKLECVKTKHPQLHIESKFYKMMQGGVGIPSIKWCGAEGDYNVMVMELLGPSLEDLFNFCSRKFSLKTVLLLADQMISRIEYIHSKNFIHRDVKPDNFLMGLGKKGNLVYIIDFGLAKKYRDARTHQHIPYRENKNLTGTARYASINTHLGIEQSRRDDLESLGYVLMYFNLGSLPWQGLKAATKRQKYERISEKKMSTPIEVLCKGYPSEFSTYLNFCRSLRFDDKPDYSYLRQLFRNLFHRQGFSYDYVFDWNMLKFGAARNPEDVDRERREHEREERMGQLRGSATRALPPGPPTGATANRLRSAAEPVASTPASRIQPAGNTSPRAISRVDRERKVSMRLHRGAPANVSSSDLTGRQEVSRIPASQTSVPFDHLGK

[10] = system: MM1.S; assay: Upregulation of YAP1 protein level in human MM1.S cells at 1 to 10 uM measured after 16 hrs by Western blot analysis; assay type: functional, cell-based; details: dose 1-10 µM
[11] = target: Casein kinase I isoform gamma-3 (Homo sapiens) (UniProt Q9Y6M4); assay: Inhibition of wild-type human full length CSNK1G3 (M1 to K447 residues) expressed in bacterial expression system by Kinomescan method
Casein kinase I isoform gamma-3 (Homo sapiens), sequence (Q9Y6M4 whole entry, looked up, the tested form may be a part, canonical isoform): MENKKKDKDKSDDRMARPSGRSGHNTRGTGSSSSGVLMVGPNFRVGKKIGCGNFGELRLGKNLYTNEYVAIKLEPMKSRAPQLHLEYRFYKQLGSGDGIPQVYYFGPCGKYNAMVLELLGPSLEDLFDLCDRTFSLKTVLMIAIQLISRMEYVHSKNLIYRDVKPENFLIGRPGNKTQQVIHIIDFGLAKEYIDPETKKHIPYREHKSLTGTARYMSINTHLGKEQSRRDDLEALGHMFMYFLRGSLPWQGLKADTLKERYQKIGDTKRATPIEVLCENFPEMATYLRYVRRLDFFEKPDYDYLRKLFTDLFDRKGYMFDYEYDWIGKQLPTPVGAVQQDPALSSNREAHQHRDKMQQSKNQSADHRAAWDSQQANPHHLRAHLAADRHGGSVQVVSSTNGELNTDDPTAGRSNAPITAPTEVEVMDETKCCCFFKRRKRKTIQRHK

[12] = target: T2, Serine/threonine-protein kinase 3 (Homo sapiens); assay: Inhibition of wild-type human partial length MST2 (D17 to E318 residues) expressed in bacterial expression system by Kinomescan method
[13] = system: NCI-H929; assay: Upregulation of YAP1 protein level in human NCI-H929 cells at 3 to 10 uM measured after 72 hrs by Western blot analysis; assay type: functional, cell-based; details: dose 3-10 µM
[14] = system: MM1.S; assay: Upregulation of YAP1 protein level in human MM1.S cells at 3 to 10 uM measured after 72 hrs by Western blot analysis; assay type: functional, cell-based; details: dose 3-10 µM

With `Nc1ncc(-c2cc3scnc3cc2F)cc1-c1ccc2c(c1)CCNC2=O` the IC50 [1] was 40 nM.
Molecule `Nc1ncc(-c2ccc3ncsc3c2)cc1-c1ccc2c(c1)CCNC2=O` has an IC50 [1] of 40 nM.
In the case of `C#Cc1ccc(-c2cnc(N)c(-c3ccc4c(c3)CCNC4=O)c2)c(OC)c1`, the IC50 [1] is reported as < 40 nM.
For `COc1cc(S(=O)(=O)NC2CC2)ccc1-c1cnc(N)c(-c2ccc3c(c2)CCNC3=O)c1`, the IC50 [1] was < 40 nM.
For `Nc1ncc(-c2ccc(F)c3ncsc23)cc1-c1ccc2c(c1)CNC2=O`, the IC50 [1] was 40 nM.
For `Nc1ncc(-c2scnc2Cl)cc1-c1ccc2c(c1)CCNC2=O`, the IC50 [2] was 40 nM, the IC50 [1] was 40 nM and the IC50 [3] was > 900 nM.
`Nc1ncc(-c2cc(-c3cccc4ncsc34)ccc2F)cc1-c1ccc2c(=O)[nH]cnc2c1` showed an IC50 [1] of 40 nM.
In the case of `CCOc1cc(S(=O)(=O)N(C)C2CC2)ccc1-c1cnc(N)c(-c2ccc3c(c2)CCNC3=O)c1`, the IC50 [1] is reported as < 40 nM.
With `Nc1ncc(-c2cc([N+](=O)[O-])ccc2Cl)cc1-c1ccc2c(c1)CCNC2=O` the IC50 [1] was > 900 nM.
Molecule `Nc1ncc(-c2cccc3scnc23)cc1-c1ccc2c(c1)CCNC2=O` has an IC50 [1] of 40 nM.
`Nc1ncc(-c2cnccc2F)cc1-c1ccc2c(c1)CCNC2=O` gave an IC50 [1] of 200 nM.
With `CN(C1CC1)S(=O)(=O)c1ccc(-c2cnc(N)c(-c3ccc4c(=O)[nH]cnc4c3)c2)c(F)c1` the IC50 [1] was < 40 nM.
In the case of `CC(C)Oc1cc(S(=O)(=O)N(C)C2CC2)ccc1-c1cnc(N)c(-c2ccc3c(c2)CCNC3=O)c1`, the IC50 [1] is reported as < 40 nM.
In the case of `CN(C1CC1)S(=O)(=O)c1ccc(-c2cnc(N)c(-c3ccc4c(c3)CCNC4=O)c2)cc1`, the IC50 [1] is reported as < 40 nM and the Activity [4] is reported as “Active”.
For `Nc1ncc(-c2ccc(NS(=O)(=O)C3CC3)cc2OC2CCCC2)cc1-c1ccc2c(c1)CCNC2=O`, the IC50 [1] was < 40 nM.
For `CN1CCc2cc(-c3cc(-c4ccc(S(=O)(=O)N(C)C5CC5)cc4F)cnc3N)ccc2C1=O`, the IC50 [1] was < 40 nM.
For `Nc1ncc(-c2cccc(-c3nccs3)c2)cc1-c1ccc2c(c1)CCNC2=O`, the IC50 [1] was < 40 nM.
`Nc1ncc(-c2ccc(F)c3ncsc23)cc1-c1ccc2c(c1)CCNC2=O` was tested, and the IC50 [1] was < 40 nM.
`CN1CCc2cc(-c3cc(-c4cccc5ncsc45)cnc3N)ccc2C1=O` was tested, and the IC50 [1] was 40 nM.
For `Cc1cc(S(=O)(=O)N(C)C2CC2)ccc1-c1cnc(N)c(-c2ccc3c(c2)CCNC3=O)c1`, the IC50 [1] was < 40 nM.
In the case of `Nc1ncc(-c2cccc(S(N)(=O)=O)c2)cc1-c1ccc2c(c1)CCNC2=O`, the IC50 [1] is reported as 200 nM.
For `Nc1ncc(-c2cc([N+](=O)[O-])c(Cl)cc2F)cc1-c1ccc2c(c1)CCNC2=O`, the IC50 [2] was 40 nM, the Activity [5] was “Active” and the IC50 [1] was 40 nM.
`N#Cc1cc(-c2cc(-c3cc([N+](=O)[O-])ccc3F)cnc2N)ccc1O` was tested, and the IC50 [1] was 200 nM.
In the case of `CN(C1CC1)S(=O)(=O)c1ccc(-c2cnc(N)c(-c3ccc4c(c3)CNC4=O)c2)c(F)c1`, the IC50 [2] is reported as < 40 nM, the IC50 [1] is reported as < 40 nM and the IC50 [3] is reported as > 900 nM.
In the case of `Nc1ncc(-c2cc([N+](=O)[O-])cnc2F)cc1-c1ccc2c(c1)CCNC2=O`, the IC50 [1] is reported as 200 nM.
With `COc1cc(S(=O)(=O)N(C)C2CCOCC2)ccc1-c1cnc(N)c(-c2ccc3c(c2)CCNC3=O)c1` the IC50 [1] was 40 nM.
For `NC(=O)c1ccc(-c2cc(-c3cc([N+](=O)[O-])ccc3F)cnc2N)cc1`, the IC50 [1] was 200 nM.
Work on `C#Cc1cc(F)c(-c2cnc(N)c(-c3ccc4c(c3)CCNC4=O)c2)cc1[N+](=O)[O-]` yielded an IC50 [1] of 40 nM.
With `Nc1ncc(-c2cccc([N+](=O)[O-])c2)cc1-c1ccc2c(c1)CCNC2=O` the IC50 [1] was < 40 nM.
In the case of `Cn1cnc2c(-c3cnc(N)c(-c4ccc5c(c4)CCNC5=O)c3)cccc21`, the IC50 [1] is reported as 40 nM.
For `CC(C)Oc1cc(NS(=O)(=O)C2CC2)ccc1-c1cnc(N)c(-c2ccc3c(c2)CCNC3=O)c1`, the IC50 [1] was < 40 nM.
With `Nc1ncc(-c2cccc(NS(=O)(=O)C3CC3)c2)cc1-c1ccc2c(c1)CCNC2=O` the IC50 [1] was < 40 nM.
With `COc1ccncc1-c1cnc(N)c(-c2ccc3c(c2)CCNC3=O)c1` the IC50 [1] was > 900 nM.
`Nc1ncc(-c2cc(F)ccc2[N+](=O)[O-])cc1-c1ccc2c(c1)CCNC2=O` was tested, and the IC50 [1] was > 900 nM.
`COc1cc(S(=O)(=O)N(C)C2CCCCC2)ccc1-c1cnc(N)c(-c2ccc3c(c2)CCNC3=O)c1` was tested, and the IC50 [1] was 40 nM.
In the case of `Nc1ncc(-c2cc3c(cc2F)OCC(=O)N3)cc1-c1ccc2c(c1)CCNC2=O`, the IC50 [2] is reported as 40 nM, the Activity [5] is reported as “Active” and the IC50 [1] is reported as < 40 nM.
With `Nc1ncc(-c2cccc3sccc23)cc1-c1ccc2c(c1)CCNC2=O` the IC50 [1] was < 40 nM.
`CCNC(=O)c1ccc(F)c(-c2cnc(N)c(-c3ccc4c(c3)CCNC4=O)c2)c1` was tested, and the IC50 [1] was > 900 nM.
With `CC(C)Oc1cc(S(=O)(=O)N(C)C2CC2)ccc1-c1cnc(N)c(-c2ccc3c(c2)CNC3=O)c1` the IC50 [1] was < 40 nM.
`Nc1ncc(-c2cc([N+](=O)[O-])cc(F)c2F)cc1-c1ccc2c(c1)CCNC2=O` gave an IC50 [1] of 40 nM.
For `Nc1ncc(-c2ccc([N+](=O)[O-])cc2F)cc1-c1ccc2c(c1)CCNC2=O`, the IC50 [1] was 40 nM.
In the case of `Nc1ncc(-c2cc(F)cc([N+](=O)[O-])c2)cc1-c1ccc2c(c1)CCNC2=O`, the IC50 [1] is reported as 40 nM.
For `Cc1cc(N2CCOCC2)cc2[nH]c(-c3c(NC[C@@H](O)c4cccc(Cl)c4)cc[nH]c3=O)nc12`, the IC50 [1] was 40 nM and the Activity [4] was “inactive”.
Molecule `COc1cc(-c2nccs2)ccc1-c1cnc(N)c(-c2ccc3c(c2)CCNC3=O)c1` has an IC50 [1] of 40 nM.
For `Nc1ncc(-c2cc([N+](=O)[O-])ccc2F)cc1-c1ccc2c(c1)CCNC2=O`, the IC50 [6] was > 900 nM, the Activity [7] was “Active” and the IC50 [2] was 40 nM. For the same molecule, the Kd [8] was 110 nM, the Kd [9] was 201 nM and the Activity [5] was “Active”. For the same molecule, the IC50 [1] was < 40 nM, the Activity [10] was “Active” and the IC50 [3] was > 900 nM. For the same molecule, the Kd [11] was 4.68 nM and the Kd [12] was 42.6 nM.
`Nc1ncc(-c2ccccc2F)cc1-c1ccc2c(c1)CCNC2=O` gave an IC50 [1] of 40 nM.
With `Nc1ncc(-c2ccc(NS(=O)(=O)C3CC3)cc2OCc2ccccc2)cc1-c1ccc2c(c1)CCNC2=O` the IC50 [1] was 40 nM.
`Nc1ncc(-c2cccc(S(=O)(=O)NC3CC3)c2)cc1-c1ccc2c(c1)CCNC2=O` was tested, and the IC50 [2] was 40 nM, the IC50 [1] was 40 nM and the Activity [13] was “Active”. The Activity [14] was “Active” and the IC50 [3] was 200 nM.
With `Nc1ncc(-c2cc([N+](=O)[O-])c(NCc3ccccc3)cc2F)cc1-c1ccc2c(c1)CCNC2=O` the Activity [5] was “Active” and the IC50 [1] was 40 nM.
`N#Cc1cccc(-c2cnc(N)c(-c3ccc4c(c3)CCNC4=O)c2)c1` was tested, and the IC50 [2] was 40 nM, the IC50 [1] was 40 nM and the IC50 [3] was 200 nM.
For `Nc1ncc(-c2cncc3ncsc23)cc1-c1ccc2c(c1)CCNC2=O`, the IC50 [1] was 200 nM.
For `COc1cc(S(=O)(=O)N(C)C2CC2)ccc1-c1cnc(N)c(-c2ccc3c(c2)CCNC3=O)c1`, the IC50 [2] was < 40 nM, the IC50 [1] was < 40 nM and the IC50 [3] was 40 nM.
`NC(=O)c1ccc(-c2cc(-c3cc([N+](=O)[O-])ccc3F)cnc2N)cc1Cl` showed an IC50 [1] of 200 nM.
